Results as given in patent US20010056085A1, “Methods of using vesicant drug formulations” (priority 1996, published 2001).
Read-outs that look alike come from different tables or passages of the source.

Assay: Half-life of ADR destruction by UVA light in the presence of test compounds (decrease in absorbance at 480 nm)
Format: physicochemical
[1] = UVA light, 100 μM test compound alone
[2] = UVA light, 100 μM test compound with 0.5 μM riboflavin
[3] = UVA light, test compound alone, +4% DMSO
[4] = UVA light, with 0.5 μM riboflavin, +4% DMSO

| Structure (SMILES) | Half-Life of ADR Destruction, 100 μM Test Compound [1] [min] | Half-Life of ADR Destruction, 100 μM Test Compound and 0.5 μM Riboflavin [2] [min] | other results |
| --- | --- | --- | --- |
| OCCc1ccc2ccccc2c1 [2-Naphthaleneethanol] | 50.2 | 33.5 | – |
| OCc1ccc2ccccc2c1 [2-Naphthalenemethanol] | – | 50.2 | – |
| O=S(=O)(O)c1ccc2ccccc2c1 [2-Naphthalenesulfonic acid] | 42.0 | – | – |
| CC(=O)Oc1ccc2ccccc2c1 [2-Naphthyl acetate] | – | – | Half-Life of ADR Destruction, 100 μM Test Compound [3]: 43.0 min; Half-Life of ADR Destruction, 100 μM Test Compound and 0.5 μM Riboflavin [4]: 33.5 min |
| O=C(O)c1ccccc1-c1ccccc1 [2-Phenyl Benzoic Acid] | 43.0 | 43.0 | – |
| c1ccc(-c2cc3ccccc3[nH]2)cc1 [2-Phenyl Indole] | – | 14.3 | – |
| O=C1CC(c2ccccc2)Oc2ccccc21 (stereo not shown) [2-Phenylchromanone (Flavanone), 2-Phenylchromanone] | – | 50.2 | – |
| CC=Cc1ccccc1O [2-Propenyl Phenol] | – | – | Half-Life of ADR Destruction, 100 μM Test Compound: 50.2 min |
| CCCc1ccccc1N [2-Propyl Aniline] | – | 9.41 | – |
| CCC(C)c1ccccc1N (stereo not shown) [2-sec-Butyl Aniline] | – | 10.4 | – |
| COc1ccc(C(C)=O)c(O)c1 [2′-Hydroxy-4-methoxyaceotphenone] | – | – | Half-Life of ADR Destruction, 100 μM Test Compound: 75.3 min |
| CC(=O)c1ccccc1O [2′-Hydroxyacetophenone] | 50.2 | 43.0 | – |
| COc1ccccc1C(C)=O [2′-Methoxyacetophenone] | 25.1 | 21.5 | – |
| O=C(c1ccc(C(=O)O)c(C(=O)O)c1)c1ccc(C(=O)O)c(C(=O)O)c1 [3,3′,4,4′-Benzophenone-tetracarboxylic acid] | 43.0 | – | – |
| Nc1cccc(S(=O)(=O)c2cccc(N)c2)c1 [3,3′-Diamino Phenylsulfone] | – | – | Half-Life of ADR Destruction, 100 μM Test Compound and 0.5 μM Riboflavin: 3.81 min |
| O=C1CCc2ccccc2N1 [3,4-Dihydro-2(1H)-quinolinone] | – | – | Half-Life of ADR Destruction, 100 μM Test Compound and 0.5 μM Riboflavin: 20.1 min |
| NCc1ccc(O)c(O)c1 [3,4-Dihydroxy Benzylamine] | – | 150.3 | – |
| O=C(O)C=Cc1ccc(O)c(O)c1 [3,4-Dihydroxy Cinnamic Acid] | 75.3 | – | – |
| NCCc1ccc(O)c(O)c1 [3,4-Dihydroxy Phenethylamine (Dopamine), 3,4-Dihydroxy Phenethylamine] | – | 301.0 | – |
| COc1ccc(C=CC(=O)O)cc1OC [3,4-Dimethoxy Cinnamic Acid] | 43.0 | 5.68 | – |
| Nc1ccc(C(=O)c2cccc(N)c2)cc1 [3,4′-Diamino-benzophenone] | – | 15.8 | – |
| Nc1cc(N)cc(C(=O)O)c1 [3,5-Diamino Benzoic Acid] | – | 75.3 | – |

| Structure (SMILES) | Half-Life of ADR Destruction, 100 μM Test Compound [1] [min] | Half-Life of ADR Destruction, 100 μM Test Compound and 0.5 μM Riboflavin [2] [min] | other results |
| --- | --- | --- | --- |
| Nc1cc(N)cc(CO)c1 [3,5-Diamino Benzyl Alcohol] | – | 75.3 | – |
| Nc1cc(F)cc(F)c1 [3,5-Difluoro Aniline] | – | 15.1 | – |
| COc1cc(C=CC(=O)O)cc(OC)c1O [3,5-Dimethoxy-4-Hydroxy Cinnamic Acid] | 75.3 | 50.2 | – |
| Cc1cc(C)cc(N)c1 [3,5-Dimethyl Aniline] | – | 100.4 ± 70.9 | – |
| Nc1cc([N+](=O)[O-])cc([N+](=O)[O-])c1 [3,5-Dinitro Aniline] | – | – | Half-Life of ADR Destruction, 100 μM Test Compound and 0.5 μM Riboflavin: 75.3 min |
| COc1ccc2cc(C(=O)CCC(=O)O)c(OC)cc2c1 [3,6-Dimethoxy-γ-oxo-2-naphthalenebutyric acid] | 30.1 | 3.86 | – |
| O=C(O)CCOc1cccc2ccccc12 [3-(1-naphthyloxy) propionic acid] | 75.3 | – | – |
| O=C(O)C=Cc1ccc2ccccc2c1 [3-(2-Naphthyl)acrylic acid] | – | 43.0 | – |
| N[C@@H](Cc1ccc2ccccc2c1)C(=O)O [3-(2-Naphthyl)alanine] | – | 27.4 | – |
| O=C(O)CCc1ccc(O)c(O)c1 [3-(3,4-Dihydroxyphenyl) Propionic Acid] | 75.3 | – | – |
| COc1ccc(CCCO)cc1OC [3-(3,4-Dimethoxyphenyl)-1-Propanol] | 43.0 | 4.78 | – |
| Nc1ccc(CCC(=O)O)cc1 [3-(4-Aminophenyl) Propionic Acid] | – | 6.41 | – |
| O=C(O)CCOc1ccc(-c2ccccc2)cc1 [3-(4-Biphenylyloxy) Propionic Acid] | 43.0 | 43.0 | – |
| O=C(O)CCc1ccc(O)cc1 [3-(4-Hydroxyphenyl) Propionic Acid] | – | 75.3 | – |
| COc1ccc(CCC(=O)O)cc1 [3-(4-Methoxyphenyl) Propionic Acid] | 75.3 | 12.5 | – |
| COc1ccc(CCCO)cc1 [3-(4-Methoxyphenyl)-1-Propanol] | 43.0 | 1.68 | – |
| CC(=O)Oc1c[nH]c2ccccc12 [3-Acetoxyindole] | 25.1 | 5.90 | – |
| CC(=O)c1ccc2[nH]c3ccccc3c2c1 [3-Acetylcarbazole] | – | – | Half-Life of ADR Destruction, 100 μM Test Compound [3]: 30.1 min; Half-Life of ADR Destruction, 100 μM Test Compound and 0.5 μM Riboflavin [4]: 23.2 min |
| CC(=O)c1c[nH]c2ccccc12 [3-Acetylindole] | – | 33.5 | – |
| Nc1cccc(S(=O)(=O)O)c1 [3-Amino Benzenesulfonic acid] | – | 17.7 | – |
| Nc1cccc(C(=O)O)c1 [3-Amino Benzoic Acid] | – | 16.7 | – |
| Nc1cccc(CO)c1 [3-Amino Benzyl Alcohol] | – | 7.34 | – |

| Structure (SMILES) | Half-Life of ADR Destruction, 100 μM Test Compound [1] [min] | Half-Life of ADR Destruction, 100 μM Test Compound and 0.5 μM Riboflavin [2] [min] | other results |
| --- | --- | --- | --- |
| Nc1cccc(CC(=O)O)c1 [3-Amino Phenylacetic acid] | – | 13.7 | – |
| Cc1c(N)cccc1C(=O)O [3-Amino-2-Methyl Benzoic Acid] | – | 23.2 | – |
| Cc1c(N)cccc1CO [3-Amino-2-Methyl Benzyl Alcohol] | – | 33.5 | – |
| Nc1cc(C(=O)O)ccc1O [3-Amino-4-Hydroxy Benzoic Acid] | – | 75.3 | – |
| Nc1cc(C[C@H](N)C(=O)O)ccc1O [3-Amino-4-Hydroxy Phenylalanine] | – | 100.3 | – |
| Cc1ccc(C(=O)O)cc1N [3-Amino-4-Methyl Benzoic Acid] | – | 13.7 | – |
| Cc1ccc(CO)cc1N [3-Amino-4-Methyl Benzyl Alcohol] | – | 23.2 | – |
| Nc1ccc(O)c(C(=O)O)c1 [3-Amino-6-Hydroxy Benzoic Acid] | – | 301.0 | – |
| Cc1ccc(N)cc1CO [3-Amino-6-Methyl Benzyl Alcohol] | – | 16.7 | – |
| NC(=O)c1cccc(N)c1 [3-Aminobenzamide] | – | 6.87 ± 1.20 | – |
| Nc1cc2ccccc2cc1C(=O)O [3-Atninonaphthalene-2-carboxylic acid] | 75.3 | 50.2 | – |
| O=C(O)c1cccc(C(=O)c2ccccc2)c1 [3-Benzophenone-carboxylic acid] | – | – | Half-Life of ADR Destruction, 100 μM Test Compound: 20.1 min; Half-Life of ADR Destruction, 100 μM Test Compound and 0.5 μM Riboflavin: 15.8 min |
| O=C(c1ccccc1)c1cccnc1C(=O)O [3-Benzoylpyridine-2-carboxylic acid] | 43.0 | 43.0 | – |
| Nc1cccc(Cc2ccccc2)c1 [3-Benzylaniline] | – | 6.54 | – |
| Nc1cccc(OCc2ccccc2)c1 [3-Benzyloxyaniline] | – | – | Half-Life of ADR Destruction, 100 μM Test Compound: 43.0 min; Half-Life of ADR Destruction, 100 μM Test Compound and 0.5 μM Riboflavin: 17.7 min |
| O=C(/C=C/c1ccc(O)c(O)c1)O[C@@H]1C[C@](O)(C(=O)O)C[C@@H](O)[C@H]1O [3-Caffeolyquinic Acid] | 100.3 | 100.3 | – |
| O=C1COc2ccccc21 [3-Coumaranone] | 11.2 | 11.2 | – |
| CCc1cccc(N)c1 [3-Ethyl Aniline] | – | 20.1 | – |
| Nc1cccc(F)c1 [3-Fluoro Aniline] | – | 5.90 | – |
| O=C(O)c1cccc(O)c1 [3-Hydroxy Benzoic Acid] | – | 23.2 | – |
| N[C@@H](Cc1cccc(O)c1)C(=O)O [3-Hydroxy Phenylalanine] | – | 34.2 ± 5.9 | – |
